Laboratory results: paper PMC8151276, “An Integrated Approach toward NanoBRET Tracers for Analysis of GPCR Ligand Engagement” (Molecules, 2021)

Tests used:
[1] = target: T1, ADRB2 (Homo sapiens, UniProt P07550); experiment: NanoBRET screen HiBiT-ADRB2 in HEK293; format: binding
T1 construct: purchased Promega (in-house HiBiT-GPCR construct library, NanoBRET)
Description: (§1) Each tracer candidate was screened across the entire library of HiBiT-GPCR constructs using NanoBRET as the detection modality. As depicted in Figure 4A, the specificity of interactions was evaluated through decrease in BRET due to competitive displacement of a bound tracer by excess parental compound. Each tracer was analyzed for binding to each HiBiT-GPCR fusion in the absence and in the presence of competing parental compound. Briefly, HEK293 cells were transfected with HiBiT-GPCR constructs diluted into promoterless DNA to reduce expression and maximize translocation to the cell surface. Each tracer candidate was then screened at concentrations of 1 μM and 0.1 μM across cells expressing these fusions. Cells were treated for 1.5 h with tracer either alone or in the presence of 20 μM competing parental compound (i.e., control). BRET was measured upon addition of purified LgBiT and subsequent complementation with HiBiT genetically fused to a GPCR. The specificity of interactions was assessed through a decrease in BRET signal due to competitive displacement of the bound tracer. To further gauge the robustness of these interactions, the fold response over the control (i.e., BRETtracer/BRETcontrol) was calculated. We chose a 1.5-fold response, which translates to ≥7-fold signal over noise as the minimal threshold required to score an interaction as positive.
(§2) HiBiT-GPCR DNA constructs were diluted in 10 mM Tris pH 8 to a final concentration of 0.01 μg/μL, arrayed in 96-well plates and stored at −20 °C. For transfection, HEK293 cells were suspended in Opti-MEM (without phenol red) supplemented with 2% fetal bovine serum (Seradigm) and 100 units/mL penicillin–streptomycin (Gibco) at a final concentration of 220,000 cells/mL and dispensed into white 96-well plates at 90 μL/well. Subsequent transfections and screens were carried using an Agilent Bravo Automated Liquid Handling Platform. First, the 96-well HiBiT DNA arrays were diluted 25-fold in Opti-MEM (without serum or phenol red) to a final concentration of 0.0004 μg/μL and 20 μL of the diluted DNAs were transferred into new 96-well plates. Next, promoterless carrier DNA (1 μg/μL) was diluted 25-fold (0.04 μg/μL) and then dispensed into the diluted arrays at 20 μL/well. Following brief mixing, Viafect transfection reagent (Promega) diluted 16-fold into Opti-MEM was dispensed into the plates at 40 μL/well. After mixing by pipetting, plates were incubated for 10 min on the pipetting station deck. The DNA-transfection reagent complexes were then added to plates containing cells. To facilitate the screen, 10 μL of DNA-transfection reagent complexes were added in duplicates to the top 4 and bottom 4 rows, resulting in two identical 48-well arrays per plate. Plates with transfected cells were incubated for 18–20 h at 37 °C/5% CO2. A screen of each tracer across the entire library using two different concentrations requires duplicate plates of transfected cells. Depending on the number of tracers being screened, transfections can be scaled up using the same ratios. The next day, for each tracer, four 20× screening solutions in tracer dilution buffer (Promega) were prepared: two duplicates at final concentration of 20 μM and two duplicates at a final concentration of 2 μM. […] The four resulting solutions were diluted 4-fold in Opti-MEM without serum or phenol red to generate 5× solutions (5 µM and 0.5 µM tracer +/− 100 μM competing compound). To screen the library, a BioTek MultiFlo FX liquid dispenser was used to dispense 22.5 µL of tracer solution to the top 4 rows and 22.5 µL tracer + competing compound solution to the 4 bottom rows. Plates were briefly mixed on an orbital shaker and incubated for 1.5 h at room temperature. […] Plates were briefly mixed on an orbital shaker and incubated for 15 min to allow complementation.

[2] = target: T2, NPY4R (Homo sapiens, UniProt P50391); experiment: NanoBRET screen HiBiT-NPY4R in HEK293; format: binding
T2 construct: purchased Promega (in-house HiBiT-GPCR construct library, NanoBRET)
T2 sequence (P50391 whole entry): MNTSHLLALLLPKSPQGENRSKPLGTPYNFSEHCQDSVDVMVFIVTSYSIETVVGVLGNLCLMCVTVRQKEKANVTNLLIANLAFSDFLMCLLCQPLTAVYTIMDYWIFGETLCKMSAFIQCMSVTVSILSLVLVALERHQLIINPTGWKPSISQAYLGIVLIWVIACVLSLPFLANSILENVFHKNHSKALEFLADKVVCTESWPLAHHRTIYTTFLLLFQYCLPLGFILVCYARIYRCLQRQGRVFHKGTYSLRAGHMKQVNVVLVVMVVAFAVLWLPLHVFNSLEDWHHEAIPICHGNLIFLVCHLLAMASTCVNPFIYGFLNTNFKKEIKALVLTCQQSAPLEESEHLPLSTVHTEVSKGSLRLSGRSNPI
Description: as §1, §2

[3] = tracer at 1μM, listed as amitriptyline-b-2-NB590

T1 sequence (P07550 whole entry): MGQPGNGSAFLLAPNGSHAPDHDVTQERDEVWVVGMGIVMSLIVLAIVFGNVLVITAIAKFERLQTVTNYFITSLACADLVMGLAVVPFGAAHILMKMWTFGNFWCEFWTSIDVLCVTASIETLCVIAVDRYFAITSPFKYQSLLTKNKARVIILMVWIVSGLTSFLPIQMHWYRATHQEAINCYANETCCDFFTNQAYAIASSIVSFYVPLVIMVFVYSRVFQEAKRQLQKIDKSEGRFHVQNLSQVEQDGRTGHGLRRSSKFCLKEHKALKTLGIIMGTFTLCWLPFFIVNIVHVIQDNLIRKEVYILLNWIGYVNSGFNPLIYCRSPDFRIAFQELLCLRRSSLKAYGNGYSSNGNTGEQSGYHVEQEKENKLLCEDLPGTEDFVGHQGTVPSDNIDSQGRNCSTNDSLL

SMILES	NanoBRET Fold Response ([1]; ADRB2, tracer 0.1μM)	NanoBRET Fold Response ([1]; ADRB2, tracer 1μM)	NanoBRET Fold Response ([2]; NPY4R, tracer 0.1μM)	NanoBRET Fold Response ([2]; NPY4R, tracer 1μM)	further results
CN1CCN(C2=Nc3cc(Cl)ccc3Nc3ccc(CNC(=O)CCOCCOCCOCCOCCNC(=O)CCc4ccc5n4[B-](F)(F)[N+]4=C(c6ccc[nH]6)C=CC4=C5)cc32)CC1 [Clozapine-b-2-NB590]	–	–	–	–	NanoBRET Fold Response ([1]; ADRB2, 0.1μM tracer): 1.01; NanoBRET Fold Response ([1]; ADRB2, 1μM tracer): 0.93; NanoBRET Fold Response ([2]; NPY4R, 0.1μM tracer): 1.02; NanoBRET Fold Response ([2]; NPY4R, 1μM tracer): 1.08
CN(C)CCC=C1c2ccccc2CCc2ccc(C(=O)NCCNC(=O)CCOCCOCCOCCOCCNC(=O)CCc3ccc4n3[B-](F)(F)[N+]3=C(c5ccc[nH]5)C=CC3=C4)cc21 [Amitriptyline-b-2-NB590]	–	–	–	–	NanoBRET Fold Response ([1]; tracer at 0.1μM, listed as amitriptyline-b-2-NB590): 1.08; NanoBRET Fold Response [1, 3]: 0.96; NanoBRET Fold Response [2, 3]: 1.03
CCOC(=O)c1cc(C#N)c(N2CCC(C(=O)NS(=O)(=O)Cc3ccccc3/C=C/C(=O)NCCNC(=O)CCc3ccc4n3[B-](F)(F)[N+]3=C(c5ccc[nH]5)C=CC3=C4)CC2)nc1C [AZD1283-1-NB590]	–	–	–	–	NanoBRET Fold Response ([1]; ADRB2, 0.1μM): 1.01; NanoBRET Fold Response ([1]; ADRB2, 1μM): 1.06; NanoBRET Fold Response ([2]; NPY4R, 0.1μM): 1.02; NanoBRET Fold Response ([2]; NPY4R, 1μM): 1.03
CC(C)N(CC[C@H](c1ccccc1)c1cc(CCNC(=O)CCOCCOCCOCCOCCNC(=O)CCc2ccc3n2[B-](F)(F)[N+]2=C(c4ccc[nH]4)C=CC2=C3)ccc1O)C(C)C [Tolterodine-2-NB590]	0.93	1.03	0.86	1.09	–
CC(C)N(CC[C@H](c1ccccc1)c1cc(CCNC(=O)c2ccc(CNC(=O)CCc3ccc4n3[B-](F)(F)[N+]3=C(c5ccc[nH]5)C=CC3=C4)cc2)ccc1O)C(C)C [Tolterodine-BZ-NB590]	1.04	1.19	0.88	0.98	–
O=C(CCOCCOCCOCCOCCNC(=O)CCc1ccc2n1[B-](F)(F)[N+]1=C(c3ccc[nH]3)C=CC1=C2)NCCCN1CCN(C2=Nc3ccccc3Oc3ccc(Cl)cc32)CC1 [Loxapine-a-2-NB590]	1.06	0.94	0.99	1.10	–
CN1CCN(C2=Nc3cc(Cl)ccc3N(CC(=O)NCCOCCOCCOCCOCCNC(=O)CCc3ccc4n3[B-](F)(F)[N+]3=C(c5ccc[nH]5)C=CC3=C4)c3ccccc32)CC1 [Clozapine-c-2-NB590]	–	–	–	–	NanoBRET Fold Response ([1]; ADRB2, 0.1μM tracer): 0.99; NanoBRET Fold Response ([1]; ADRB2, 1μM tracer): 1.02
CN(C)CCC=C1c2ccccc2CCc2ccc(C(=O)NCCNC(=O)CCOCCOCCOCCOCCNC(=O)CCc3ccc4n3[B-](F)(F)[N+]3=C(c5ccc[nH]5)C=CC3=C4)cc21 [Amitriptyline-a-2-NB590]	–	–	–	–	NanoBRET Fold Response ([1]; tracer at 0.1μM): 1.04; NanoBRET Fold Response ([1]; tracer at 1μM): 1.03; NanoBRET Fold Response ([2]; tracer at 0.1μM): 1.11; NanoBRET Fold Response ([2]; tracer at 1μM): 0.96
Cc1nc2n(c(=O)c1CCN1CCC(c3noc4cc(F)ccc34)CC1)CCCC2OC(=O)NCCOCCOCCOCCOCCNC(=O)CCc1ccc2n1[B-](F)(F)[N+]1=C(c3ccc[nH]3)C=CC1=C2 (stereo not drawn) [Risperidone-2-NB590]	0.97	0.98	0.95	1.02	–
COc1ccc2[nH]c(-c3ccc(CNC(=O)CCOCCOCCOCCOCCNC(=O)CCc4ccc5n4[B-](F)(F)[N+]4=C(c6ccc[nH]6)C=CC4=C5)cc3)c(CCNC(C)=O)c2n1 [AzomelatoninICO9-2-NB590]	–	–	–	–	NanoBRET Fold Response ([1]; 0.1μM tracer): 0.94; NanoBRET Fold Response ([1]; 1μM tracer): 0.99; NanoBRET Fold Response ([2]; 0.1μM tracer): 1.11; NanoBRET Fold Response ([2]; 1μM tracer): 0.94
COc1ccccc1N1CCN(CCCCN2C(=O)c3ccc(CNC(=O)CCOCCOCCOCCOCCNC(=O)CCc4ccc5n4[B-](F)(F)[N+]4=C(c6ccc[nH]6)C=CC4=C5)cc3C2=O)CC1 [NAN-190-2-NB590]	1.25	1.66	0.95	1.04	–
O=C(CCc1ccc2n1[B-](F)(F)[N+]1=C(c3ccc[nH]3)C=CC1=C2)NCCOCCOCCNC(=O)OCCOCCN1CCN(C2=Nc3ccccc3Sc3ccccc32)CC1 [Quetiapine-a-2-NB590]	1.13	0.97	1.06	0.73	–
O=C(CCOCCOCCOCCOCCNC(=O)CCc1ccc2n1[B-](F)(F)[N+]1=C(c3ccc[nH]3)C=CC1=C2)NCCCN1CCN(C2=Nc3cc(Cl)ccc3Nc3ccccc32)CC1 [Clozapine-a-2-NB590]	–	–	–	–	NanoBRET Fold Response ([1]; ADRB2, 0.1μM tracer): 1.09; NanoBRET Fold Response ([1]; ADRB2, 1μM tracer): 1.10; NanoBRET Fold Response ([2]; NPY4R, 0.1μM tracer): 0.88; NanoBRET Fold Response ([2]; NPY4R, 1μM tracer): 1.40
N#CN=C(NCCCOc1cccc(CN2CCCCC2)c1)NCCNC(=O)CCOCCOCCOCCOCCNC(=O)CCc1ccc2n1[B-](F)(F)[N+]1=C(c3ccc[nH]3)C=CC1=C2 [Aminopotentidine-2-NB590]	1.05	1.02	1.01	0.98	–
O=C(CCc1ccc2n1[B-](F)(F)[N+]1=C(c3ccc[nH]3)C=CC1=C2)NCc1ccc(C(=O)NCCOCCOCCNCC(O)COc2cccc3ccccc23)cc1 (stereo not drawn) [Propranolol-3-NB590]	–	–	–	–	NanoBRET Fold Response ([2]; NPY4R, 0.1μM): 0.98; NanoBRET Fold Response ([2]; NPY4R, 1μM): 0.99
O=C(CCc1ccc2n1[B-](F)(F)[N+]1=C(c3ccc[nH]3)C=CC1=C2)NCc1ccc(C(=O)NCCOCCC(=O)N[C@@H]2CC[C@@]3(O)[C@H]4Cc5ccc(O)c6c5[C@@]3(CCN4CC3CC3)[C@H]2O6)cc1 [Naltrexone-3-NB590]	1.36	0.89	1.04	0.91	–
COc1ccccc1N1CCN(CCCCN2C(=O)c3ccc(CNC(=O)CCOCCNC(=O)c4ccc(CNC(=O)CCc5ccc6n5[B-](F)(F)[N+]5=C(c7ccc[nH]7)C=CC5=C6)cc4)cc3C2=O)CC1 [NAN-190-3-NB590]	1.00	1.45	1.06	0.95	–
Cc1cc2c(s1)Nc1ccccc1N=C2N1CCN(CCCNC(=O)CCOCCOCCOCCOCCNC(=O)CCc2ccc3n2[B-](F)(F)[N+]2=C(c4ccc[nH]4)C=CC2=C3)CC1 [Olanzapine-a-2-NB590]	1.01	1.15	1.01	0.91	–
CCCn1c(=O)c2[nH]c(-c3ccc(OCC(=O)NCCNC(=O)CCOCCNC(=O)c4ccc(CNC(=O)CCc5ccc6n5[B-](F)(F)[N+]5=C(c7ccc[nH]7)C=CC5=C6)cc4)cc3)nc2n(CCC)c1=O [XAC-3-NB590]	1.04	1.10	0.97	0.86	–
N#CN/C(=N\CCNC(=O)c1ccc(N)cc1)NCCCOc1cccc(CN2CCCCC2)c1 [Aminopotentidine (unmodified)]	–	–	–	–	NanoBRET Fold Response ([1]; ADRB2, other tracers/Aminopotentidine (unmodified), 0.1μM): 1.00; NanoBRET Fold Response ([1]; ADRB2, other tracers/Aminopotentidine (unmodified), 1μM): 1.04
CN(CCC=C1c2ccccc2CCc2ccccc21)C(=O)CCOCCOCCOCCOCCNC(=O)CCc1ccc2n1[B-](F)(F)[N+]1=C(c3ccc[nH]3)C=CC1=C2 [Amitriptyline-e-2-NB590]	–	–	–	–	NanoBRET Fold Response ([1]; tracer at 1μM): 1.04
COc1ccc2c(n1)c(CCNC(C)=O)cn2CCNC(=O)CCc1ccc2n1[B-](F)(F)[N+]1=C(c3ccc[nH]3)C=CC1=C2 [Azamelatonin-1-NB590]	–	–	–	–	NanoBRET Fold Response ([1]; 0.1μM tracer): 0.97; NanoBRET Fold Response ([1]; 1μM tracer): 0.90; NanoBRET Fold Response ([2]; 0.1μM tracer): 1.11; NanoBRET Fold Response ([2]; 1μM tracer): 1.08
